Assay results taken from patent US6949574B2 (Bristol-Myers Squibb Company, priority 2002, dated 2005).
Read-outs that look alike come from different tables or passages of the source.

Experiments:
[1] = system: acute thermal pain behavior; format: in vivo, rat
Source text: FIG. 2 illustrates results from a rat Hargreaves test used for measuring acute thermal pain.
Data are mean+/−s.e.m. (n=8 per group). **p<0.01 Dunnett's Test, compared to vehicle control.

[2] = system: carrageenan-induced edema; assay: Paw edema model (inflammation-induced edema), plethysmometry; format: in vivo, rat
Source text: PAW EDEMA MODEL (Inflammation-induced Edema) The effects of Example 5 on carrageenan-induced edema were examined in a quantitative manner (plethysmometry).

human FAAH = target: T1, human FAAH (Homo sapiens, UniProt O00519); assay: FAAH activity in membrane homogenates of H4-FAAH cells, [3H]-anandamide hydrolysis; format: biochemical; conditions: H4-FAAH cell membranes, 10 μM anandamide, room temperature, one hour; read-out: IC50
T1 construct: expressed in transfected cells; host or cells: H4 cells (H4-FAAH, Geneticin-selected); crude membrane homogenates
T1 sequence (O00519 1-579): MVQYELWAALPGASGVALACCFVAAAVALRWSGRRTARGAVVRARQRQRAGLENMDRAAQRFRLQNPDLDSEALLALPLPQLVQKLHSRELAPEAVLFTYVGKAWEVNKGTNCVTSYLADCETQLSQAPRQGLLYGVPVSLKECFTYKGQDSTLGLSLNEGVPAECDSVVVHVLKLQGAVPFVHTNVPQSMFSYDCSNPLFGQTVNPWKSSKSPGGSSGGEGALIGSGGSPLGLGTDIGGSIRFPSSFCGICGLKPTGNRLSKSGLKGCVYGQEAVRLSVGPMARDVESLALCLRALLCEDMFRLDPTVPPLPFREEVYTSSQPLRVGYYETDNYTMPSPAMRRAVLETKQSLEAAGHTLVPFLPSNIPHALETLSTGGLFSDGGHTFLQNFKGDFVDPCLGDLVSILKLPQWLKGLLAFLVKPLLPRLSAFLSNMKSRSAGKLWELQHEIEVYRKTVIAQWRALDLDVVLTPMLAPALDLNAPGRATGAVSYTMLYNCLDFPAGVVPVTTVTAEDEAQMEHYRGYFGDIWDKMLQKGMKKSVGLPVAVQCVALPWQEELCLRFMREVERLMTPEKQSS
In short: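 Membranes (240 ng protein) from H4 cells expressing transfected human FAAH, incubated 1 h at room temperature in 125 mM Tris-Cl, pH 9.0, with 1.67 nM [3H]-anandamide plus 10 μM anandamide. Aqueous [3H]-ethanolamine counted after methanol/dichloroethane extraction; background set with 10 μM ATFMK. IC50 from four-parameter logistic fit.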

[3] = system: thermal hyperalgesia induced by paw carrageenan; assay: Carrageenan-induced thermal hyperalgesia (chronic inflammatory pain); format: in vivo, rat
Source text: FIG. 1 illustrates results from a rat carrageen-induced thermal hypergesia model used for measuring chronic inflammatory pain.
The following in vivo pain models below utilized Example 5. […] Paw carrageenan injection (⋄, 0:45 hr, Carr) produced strong thermal hyperalgesia as evidenced by the short escape latencies seen in vehicle treated rats (⋄, 2:15 hr, Carr) as compared to the long baseline latencies (0:00 hr). […] Data are mean+/−s.e.m. (n=8 per group). *p<0.05, **p<0.01 Tukey's HSD, compared to vehicle.

IC50 (human FAAH) [nM]	SMILES	other results
> 500	O=C(Nc1ccccc1Oc1ccccc1)O/N=C/c1ccc(F)cc1 [Example 89, 4-Fluorobenzaldehyde, O-[[(2-phenoxyphenyl)amino]carbonyl]oxime]	melting point: 141.5 to 142 °C
10 to 100	O=C(Nc1ccccc1Oc1ccccc1)O/N=C/c1ccccc1 [Example 90, Benzaldehyde, O-[[(2-phenoxyphenyl)amino]carbonyl]oxime]	melting point: 141.5 to 142 °C
10 to 100	CCCCCCCCC(=O)Nc1ccc(NC(=O)O/N=C/c2ccccc2)cc1 [Example 136, Benzaldehyde, O-[[(4-Nonanoylamino-phenyl)amino]carbonyl]oxime]	
10 to 100	CCCCCCCCC(=O)Nc1ccc(NC(=O)O/N=C/c2ccc(F)cc2)cc1 [Example 137, 4-Fluorobenzaldehyde, O-[[(4-Nonanoylamino-phenyl)amino]carbonyl]oxime]	
10 to 100	CCCCCCCCC(=O)Nc1ccc(NC(=O)O/N=C/c2cccc(C(F)(F)F)c2)cc1 [Example 138, 3-Trifluoromethylbenzaldehyde, O-[[(4-Nonanoylamino-phenyl)amino]carbonyl]oxime]	
< 10	CCCCCCCCC(=O)Nc1ccc(NC(=O)O/N=C/c2ccc(F)cc2F)cc1 [Example 139, 2,4-Difluorobenzaldehyde, O-[[(4-Nonanoylamino-phenyl)amino]carbonyl]oxime]	
10 to 100	CCCCCCCCC(=O)Nc1ccc(NC(=O)O/N=C/c2ccc(F)c(F)c2)cc1 [Example 140, 3,4-Difluorobenzaldehyde, O-[[(4-Nonanoylamino-phenyl)amino]carbonyl]oxime]	
> 500	O=C(Nc1ccc2[nH]ccc2c1)O/N=C/c1cccnc1 [Example 141, 3-Pyridinecarboxaldehyde, O-[[(1H-indol-5-yl)amino]carbonyl]oxime]	
> 500	O=C(Nc1ccc2[nH]ccc2c1)O/N=C/c1ccc(F)cc1 [Example 142, 4-Fluorobenzaldehyde, O-[[(1H-indol-5-yl)amino]carbonyl]oxime]	
> 500	O=C(Nc1ccc2[nH]ccc2c1)O/N=C/c1ccccc1 [Example 143, Benzaldehyde, O-[[(1H-indol-5-yl)amino]carbonyl]oxime]	
> 500	O=C(Nc1c[nH]c2ccccc12)O/N=C/c1ccc(F)cc1 [Example 144, 4-Fluorobenzaldehyde, O-[[(1H-indol-3-yl)amino]carbonyl]oxime]	
> 500	O=C(Nc1c[nH]c2ccccc12)O/N=C/c1ccccc1 [Example 145, Benzaldehyde, O-[[(1H-indol-3-yl)amino]carbonyl]oxime]	
101 to 500	O=C(Nc1ccc(Oc2ccncc2)cc1)O/N=C/c1ccc(F)cc1 [Example 146, 4-Fluorobenzaldehyde, O-[[[4-[(4-pyridinyl)oxy]phenyl]amino]carbonyl]oxime]	
10 to 100	O=C(Nc1ccc(Oc2ccccn2)cc1)O/N=C/c1ccc(F)cc1 [Example 148, 4-Fluorobenzaldehyde, O-[[[4-[(2-pyridinyl)oxy]phenyl]amino]carbonyl]oxime]	
10 to 100	O=C(Nc1ccc(Oc2ccccn2)cc1)O/N=C/c1ccccc1 [Example 149, Benzaldehyde, O-[[[4-[(2-pyridinyl)oxy]phenyl]amino]carbonyl]oxime]	
< 10	O=C(Nc1ccc(Oc2cccnc2)cc1)O/N=C/c1ccc(F)cc1 [Example 150, 4-Fluorobenzaldehyde, O-[[[4-[(3-pyridinyl)oxy]phenyl]amino]carbonyl]oxime]	
101 to 500	O=C(Nc1ccc2oc3ccccc3c2c1)O/N=C/c1cccnc1 [Example 152, 3-Pyridinecarboxaldehyde, O-[[(2-dibenzofuranyl)amino]carbonyl]oxime]	
10 to 100	O=C(Nc1ccc2oc3ccccc3c2c1)O/N=C/c1ccc(F)cc1 [Example 153, 4-Fluorobenzaldehyde, O-[[(2-dibenzofuranyl)amino]carbonyl]oxime]	
10 to 100	O=C(Nc1ccc2oc3ccccc3c2c1)O/N=C/c1ccccc1 [Example 154, Benzaldehyde, O-[[(2-dibenzofuranyl)amino]carbonyl]oxime]	
	C[C@@H]1C[C@H]2[C@@H]3CCC4=CC(=O)C=C[C@]4(C)[C@@]3(F)[C@@H](O)C[C@]2(C)[C@@]1(O)C(=O)CO [dexamethasone, reference compound]	inhibition of swelling (combined total paw volume) ([2]; 1 mg/kg ip): 70%

SMILES	IC50 (human FAAH) [nM]	other results
CCCCOc1ccc(NC(=O)O/N=C/c2ccc(F)cc2)cc1 [Example 5, 4-Fluorobenzaldehyde, O-[[(4-butoxyphenyl)amino]carbonyl]oxime]	< 10	side effects ([1]; 10 mg/kg i.v.): No significant side effects were observed; side effects ([1]; 30 mg/kg i.v.): strong sedation, reduced activity and splayed hindlimbs; acute thermal pain behavior ([1]; 10 & 30 mg/kg, i.v. hand infusion, 15 min post injection, did not persist beyond this time): significant reversal of acute thermal pain behavior; inhibition of swelling (combined total paw volume) ([2]; 20 mg/kg ip): no efficacy; inhibition of swelling (combined total paw volume) ([2]; 40 mg/kg ip at -30 min and +2 hr relative to carrageenan, measured 3 hours post-injection): 26%; side effects ([3]; 40 mg/kg, i.p.): No side effects were observed; thermal escape latencies of drug treated animals ([3]; 40 mg/kg, i.p., at 2:15 hr): comparable to baseline; development of thermal hyperalgesia ([3]; 40 mg/kg, i.p., pretreatment before paw carrageenan): suppressed the development of thermal hyperalgesia; thermal escape responses after second injection ([3]; second injection 40 mg/kg i.p. at 3:00 hr, 3:00-4:00 hr): maintained thermal escape responses at basal levels for another hour
CCCCOc1ccc(C(CC)NC(=O)Oc2ccc3ncccc3c2)cc1 (stereo not shown) [Example 125, [1-(4-Butoxy-phenyl)-propyl]-carbamic acid quinolin-6-yl ester]	10 to 100	melting point: 115 to 118 °C
CCCCOc1ccc(C(CC)NC(=O)Oc2ccc(OC)cc2)cc1 (stereo not shown) [Example 126, [1-(4-Butoxy-phenyl)-propyl]-carbamic acid 4-methoxy-phenyl ester]	10 to 100	
CCCCOc1ccc(C(CC)NC(=O)Oc2cccc3ccccc23)cc1 (stereo not shown) [Example 127, [1-(4-Butoxy-phenyl)-propyl]-carbamic acid naphthalen-1-yl ester]	101 to 500	
CCCCOc1ccc(C(CC)NC(=O)Oc2ccc3ccccc3c2)cc1 (stereo not shown) [Example 128, [1-(4-Butoxy-phenyl)-propyl]-carbamic acid naphthalen-2-yl ester]	10 to 100	
CCCCOc1ccc(C(CC)NC(=O)Oc2ccc(C(C)C)cc2)cc1 (stereo not shown) [Example 129, [1-(4-Butoxy-phenyl)-propyl]-carbamic acid 4-isopropyl-phenyl ester]	101 to 500	
CCCCOc1ccc(C(CC)NC(=O)Oc2cccc(C(F)(F)F)c2)cc1 (stereo not shown) [Example 130, [1-(4-Butoxy-phenyl)-propyl]-carbamic acid 3-trifluoromethyl-phenyl ester]	10 to 100	
CCCCOc1ccc(C(CC)NC(=O)Oc2ccc(F)cc2F)cc1 (stereo not shown) [Example 131, [1-(4-Butoxy-phenyl)-propyl]-carbamic acid 2,4-difluoro-phenyl ester]	10 to 100	
CCCCOc1ccc(C(CC)NC(=O)Oc2ccc(F)cc2)cc1 (stereo not shown) [Example 132, [1-(4-Butoxy-phenyl)-propyl]-carbamic acid 4-fluoro-phenyl ester]	10 to 100	
CCCCOc1ccc(C(CC)NC(=O)Oc2ccccc2)cc1 (stereo not shown) [Example 134, [1-(4-Butoxy-phenyl)-propyl]-carbamic acid phenyl ester]	10 to 100	
CCCCOc1ccc(C(CC)NC(=O)Oc2ccccc2F)cc1 (stereo not shown) [Example 135, [1-(4-Butoxy-phenyl)-propyl]-carbamic acid 2-fluoro-phenyl ester]	< 10	
O=C(Nc1ccc(Oc2ccccn2)cc1)O/N=C/c1cccnc1 [Example 147, 3-Pyridinecarboxaldehyde, O-[[[4-[(2-pyridinyl)oxy]phenyl]amino]carbonyl]oxime]	101 to 500	
O=C(Nc1ccc(Oc2cccnc2)cc1)O/N=C/c1ccccc1 [Example 151, Benzaldehyde, O-[[[4-[(3-pyridinyl)oxy]phenyl]amino]carbonyl]oxime]	< 10	
CCCCOc1ccc(NC(=O)O/N=C(/C)Cl)cc1 [Example 155, (1Z)-N-[[[(4-butoxyphenyl)amino]carbonyl]oxy]ethanimidoyl chloride]	< 10	
